Common to all, as to format: cell-based
One series concerns BiP and CHOP. Description: UPR target gene expression in NIH3T3 and J558 myeloma cells (Northern blot). As to conditions: for induction of UPR target genes (BiP, CHOP), agent alone: MG-132 20 μM, Tm 10 μg/ml. As for the experimental part: (§1) (A) BiP and CHOP induction was examined by northern blot analysis after treating NIH3T3 or J558 myeloma cells with either MG-132 (20 μM), Tm (10 μg/ml) or both. Cells were pretreated with MG-132 for 1 hr and then further treated with Tm for 4 hrs. Ethidium bromide staining of the gel is shown at the bottom. (B) Inhibition of caspase-12 processing by proteasome inhibitors. Processing of full-length caspase-12 was examined by Western blotting in J558 myeloma cells treated with thapsigargin (1 μM) or PIs (20 μM) during the indicated time periods. (C) Alteration in the ratio of XBP-1 protein species in J558 cells were treated with increasing amounts of MG-132 for 16 hrs. Cells undergoing apoptosis were counted by Annexin V staining. (D) Time course of the XBP-1s to XBP-1u shift. Cells were treated with MG-132 (1 μM) for the indicated times and XBP-1u and spliced protein levels and cell death determined. (E) Alteration in the ratio of XBP-1 species in the MM.1s human myeloma line. Cells were treated with PS-341 (8 nM) in a time course analysis and XBP-1 protein species quantified.
Total RNA was prepared by using Trizol reagent, electrophoresed on 1.2% agarose, 6% formaldehyde gels and then transferred onto Genescreen Plus membrane, (NEN, Boston, Mass.). […] Probes for ERdj4 and p58^IPK were generated from cDNA excised from EST clones (ATCC, Manassas, Va.) using appropriate restriction enzymes (ERdj4, IMAGE: 1920927; p58^IPK, IMAGE:2646147).
The maturation and folding of ER membrane and secretory proteins relies on the activity of ER-resident chaperones and folding enzymes. ER proteins that ultimately fail to fold properly are degraded by the 26S proteasome, or ERAD. […] To test the effect of proteasome dysfunction on UPR activation, NIH3T3 fibroblasts (left panel) and J558 myeloma cells (right panel) were treated with the proteasome inhibitor (PI) MG-132 in the presence or absence of the ER stress inducer, tunicamycin (Tm), and the expression of UPR target genes assessed (FIG. 10a).

The test system of a further series is J558 myeloma cells. Description: Apoptosis of J558 myeloma cells (Annexin V staining). As to conditions: for apoptosis, combination of Tm and MG-132: J558, 18 hrs, suboptimal concentrations. As for the experimental part: as §1
(A) Synergistic effect of Tm and MG-132 on apoptosis. Annexin V positive cells were counted after treating J558 cells for 18 hrs with suboptimal concentrations of Tm and MG-132 as indicated. (B) J558-iXBP cells were generated by retroviral transduction of J558 cells with the U6 promoter based XBP-1 RNAi vector. (C) XBP-1 dependent gene expression in J558 cells that express control GFP, dn-XBP or iXBP-1 treated with Tm. Generation of dn-XBP-1 J558 cells by infection with a retrovirus containing dn-XBP cDNA inserted into the GFP-RV vector (N. N. lwakoshi et al., Nature Immunology 4, 321-329 (2003)). ERdj4, p58^IPK, BiP and CHOP gene expression were examined by Northern blot analysis. (D) Increased apoptosis in iXBP-1 and dn-XBP-1 expressing J558 cells. Cells were treated with the indicated amounts of Tm for 48 hrs and dead cells counted after Annexin V staining.
Cells were stained with annexin V-PE (BD PharMingen, San Jose, Calif.) as recommended and analyzed on a FACScan flow cytometer (Becton Dickinson, San Jose, Calif.).

In another series the test system is XBP-1s. Description: UPRE-luciferase reporter in NIH3T3 cells. As for the experimental part: (A) Ubiquitination of XBP-1 in HeLa cells were cotransfected with XBP-1u and His-tagged ubiquitin expression plasmids. (B) Degradation rates of XBP-1u and XBP-1s proteins were determined by pulse labeling J558 cells with ^35S Met/Cys for 1 hr and chasing for the indicated times. (C) Effect of XBP-1u on XBP-1s dependent UPRE activation in PI-treated NIH3T3 cells with 8-fold excess of XBP-1u plasmids. Transfected cells were treated with MG-132 for 16 hrs before harvesting for luciferase assays. Values represent fold induction of activity compared to the reporter alone after normalizing to Renilla. (D) Generation and expression of lysine to arginine XBP-1u mutants. Two or three lysine residues in the C-terminus of XBP-1u were replaced by arginine to generate XBP-1uKK (235, 252) and XBP-1uKKK(146, 235, 252) by site-directed mutagenesis. dn-XBP contains the N-terminal 188 aa of XBP-1u. Western blot analysis was performed with NIH3T3 extracts transfected with the indicated plasmids. E) Inhibition of XBP-1 dependent activation of the UPRE reporter in NIH 3T3 cells by XBP-1u lysine to arginine mutants.
Two or three lysine residues in the C-terminus of XBP-1u were replaced by arginines to generate XBP-1uKK (K235R, K252R) and XBP-1uKKK(K146R, K235R, K252R) by site-directed mutagenesis (Iwakoshi et al.2003 Nature Immunology 4: 321-329). dn-XBP contains the N-terminal 188 aa of XBP-1u. NTH3T3 cells were transfected by using the Lipofectamine2000 reagent as recommended by the manufacturer (Invitrogen, Carlsbad, Calif.) with indicated amount of UPRE (UPR element) reporter (Wang et al. 2000 J Biol Chem 275: 27013-27020) and various effector plasmids. Cells were treated for 16 hours before harvest in certain experiments. Cells were lysed in passive lysis buffer for dual luciferase assays according to the manufacturer's protocol (Promega, Madison, Wis.).
In general terms: A reporter such as luciferase makes a cellular process visible.

Where a SMILES comes first, the peptide text is derived from it. The star is where a group is joined. Cbz = O=C(OCc1ccccc1)*

On to `CC(C)C[C@@H](C=O)NC(=O)[C@H](CC(C)C)NC(=O)[C@H](CC(C)C)NC(=O)OCc1ccccc1` [MG-132] (Cbz-Leu-Leu-Leu-aldehyde), for which the “induction of UPR target genes (BiP, CHOP), agent alone” value with BiP and CHOP is reported as “also induced the UPR”. For the same molecule, the “effect on Tm-induced stress response” value in the series with BiP and CHOP (MG-132 pretreatment 1 hr, then Tm 4 hrs, NIH3T3 and J558) is reported as “blocked rather than further augmented the Tm-induced stress response”. For the same molecule, the “apoptosis, combination of Tm and MG-132” value with J558 myeloma cells is “synergistically induced apoptosis”. Besides, the “apoptosis in J558 cells” value in the series on J558 myeloma cells (agent alone) is given as “induced apoptosis in J558 cells”.
For the molecule tunicamycin [Tm], the “induction of UPR target genes (BiP, CHOP), agent alone” value in the series on BiP and CHOP is “induction of expression of representative UPR target genes such as BiP (Grp78) and CHOP”. Moreover, the “apoptosis, combination of Tm and MG-132” value with J558 myeloma cells was “synergistically induced apoptosis”.

B1: dn-XBP: dominant negative XBP-1 containing the N-terminal 188 aa, lacking transactivation domain, retaining leucine zipper (protein)
chain: MVVVAAAPSAATAAPKVLLLSGQPASGGRALPLMVPGPRAAGSEASGTPQARKRQRLTHLSPEEKALRRKLKNRVAAQTARDRKKARMSELEQQVVDLEEENHKLQLENQLLREKTHGLVVENQELRTRLGMDTLDPDEVPEVEAKGSGVRLVAGSAESAAGAGPVVTSPEHLPMDSDTVASSDSESD
In the case of B1, the “effect on transactivation of UPRE reporter by XBP-1s” value with XBP-1s (in the absence of PIs) was “inhibits XBP-1s -induced transactivation very efficiently”. In the series on J558 myeloma cells (transduced J558 cells, Tm 48 hrs), the “apoptosis upon Tm treatment compared to control GFP-transduced cells” value is “significantly increased apoptosis”. Further, the “cell proliferation or viability at baseline” value in the series with J558 myeloma cells (transduced J558 cells, no Tm) is “No effect on cell proliferation or viability”.

B2: XBP-1s: vector encoding only the spliced form of murine XBP-1, a protein of 371 aa (protein)
chain: MVVVAAAPSAATAAPKVLLLSGQPASGGRALPLMVPGPRAAGSEASGTPQARKRQRLTHLSPEEKALRRKLKNRVAAQTARDRKKARMSELEQQVVDLEEENHKLQLENQLLREKTHGLVVENQELRTRLGMDTLDPDEVPEVEAKGSGVRLVAGSAESAAGAGPVVTSPEHLPMDSDTVASSDSESDILLGILDKLDPVMFFKCPSPESASLEELPEVYPEGPSSLPASLSLSVGTSSAKLEAINELIRFDHVYTKPLVLEIPSETESQTNVVVKIEEAPLSSSEEDHPEFIVSVKKEPLEDDFIPELGISNLLSSSHCLRPPSCLLDAHSDCGYEGSPSPFSDMSSPLGTDHSWEDTFANELFPQLISV
For B2, in the series on XBP-1s (in the absence of treatment), the UPRE reporter activity entry is given as “greatly increased reporter activity”.

For the origin of these results see patent publication US20040170622A1, “Methods and compositions for modulating XBP-1 activity” (President and Fellows of Harvard College, priority 2002, published 2004).
